According to US10239843B2 (CANCER RESEARCH TECHNOLOGY LIMITED, priority 2014, dated 2019):
Read-outs that look alike come from different tables or passages of the source.

What was measured:
[1] = target: Human Full Length PARG (Homo sapiens (Human), UniProt Q86W56); assay: PARG enzyme assay (TR-FRET); format: biochemical
[2] = test system: PARG in HeLa cell line; assay: PARG cell assay (PAR chain immunofluorescence after MMS); format: cell-based; settings: HeLa cells
Description: This method is based on the detection of endogenous levels of poly (ADP) ribose chains present in the nucleus of HeLa cell line using indirect immunofluorescence. MMS stimulation increases PAR chains for up to 25 mins. After that point, PARG is active and breaks down the PAR chains, until by one hour after stimulation no PAR chains are detectable. Inhibition of PARG maintains PAR chains.
Briefly, following compound treatment and treatment with the DNA damaging agent methylmethanesulfonate (MMS), the cell monolayer is fixed, then permeabilised and incubated with a mouse monoclonal antibody raised against multimers of poly(ADP) ribose.
At the end of the 1 h dosing period, MMS was added to duplicates at a final concentration of 50 μg/mL, for a further hour.
Media was tipped off and the cells fixed with 50 μL ice-cold 95% MetOH/PBS for 15 mins at −20° C. Following a PBS wash, 50 μL PBS/0.1% Triton was added to the cells for 20 mins. Following another PBS wash, anti-PAR antibody (Calbiochem AM80) was diluted 1:4000 in a buffer (PBS+0.5% FBS+0.05% Tween20) and added to the cells and incubated overnight at 4° C.
Cells were washed three times with PBS and the plate sealed with a light-proof seal.

[3] = read-out: PARG Biochem IC50 Geomean
[4] = Homo sapiens, MMS 50 μg/mL, read-out: PARG Cell IC50 Geomean
[5] = Homo sapiens, MMS treatment, read-out: PARG Cell IC50
[6] = MMS treatment, read-out: PARG Cell IC50
[7] = MMS 50 μg/mL, read-out: PARG Cell IC50 Geomean

Sequence of Human Full Length PARG (Q86W56 whole entry): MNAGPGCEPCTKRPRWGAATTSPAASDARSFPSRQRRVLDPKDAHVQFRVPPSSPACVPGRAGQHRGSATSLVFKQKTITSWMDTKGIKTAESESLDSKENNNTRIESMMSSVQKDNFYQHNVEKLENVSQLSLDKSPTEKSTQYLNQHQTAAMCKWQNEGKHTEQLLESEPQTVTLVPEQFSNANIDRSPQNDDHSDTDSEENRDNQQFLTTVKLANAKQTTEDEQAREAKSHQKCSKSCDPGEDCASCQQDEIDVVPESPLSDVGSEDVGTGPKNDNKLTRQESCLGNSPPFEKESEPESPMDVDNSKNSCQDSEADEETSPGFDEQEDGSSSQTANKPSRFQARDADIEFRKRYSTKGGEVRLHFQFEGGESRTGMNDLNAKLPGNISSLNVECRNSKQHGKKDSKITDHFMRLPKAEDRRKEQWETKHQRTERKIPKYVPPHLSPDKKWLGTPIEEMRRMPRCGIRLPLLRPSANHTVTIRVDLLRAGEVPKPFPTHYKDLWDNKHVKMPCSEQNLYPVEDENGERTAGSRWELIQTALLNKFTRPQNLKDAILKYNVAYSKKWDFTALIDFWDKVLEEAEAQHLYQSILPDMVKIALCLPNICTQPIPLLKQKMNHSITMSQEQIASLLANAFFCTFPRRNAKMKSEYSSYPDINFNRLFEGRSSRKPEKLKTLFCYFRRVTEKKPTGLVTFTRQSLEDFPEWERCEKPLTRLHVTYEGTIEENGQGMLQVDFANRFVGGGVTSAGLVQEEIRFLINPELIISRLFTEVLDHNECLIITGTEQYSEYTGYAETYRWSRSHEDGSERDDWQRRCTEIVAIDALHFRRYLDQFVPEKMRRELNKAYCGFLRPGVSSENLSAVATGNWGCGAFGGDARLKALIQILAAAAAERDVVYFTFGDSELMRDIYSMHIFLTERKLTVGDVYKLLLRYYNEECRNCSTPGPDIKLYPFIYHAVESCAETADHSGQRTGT

| Molecule | IC50 [2, 4] | IC50 ([1]; read-out: PARG Biochem IC50) | IC50 [2, 5] | further results |
| --- | --- | --- | --- | --- |
| Cc1cc(Cn2c(=O)c3cc(S(=O)(=O)NC4(C)CC4)ccc3n(Cc3cc(C)no3)c2=O)on1 [Example 208] | 69 nM |  |  | IC50 [1, 3]: 36 nM |
| CCc1nn(Cc2cc(C)no2)c(=O)c2cc(S(=O)(=O)NC3(C)CC3)ccc12 [Example 353] | 574 nM |  |  | IC50 [1, 3]: 408 nM |
| Cc1ncc(Cn2c(=O)n(C)c(=O)c3cc(S(=O)(=O)NC4(C)CC4)ccc32)s1 [Example 126] | 214 nM |  |  | IC50 [1, 3]: 240 nM |
| Cn1cc(Cn2c(=O)[nH]c3ccc(S(=O)(=O)NC4(C#N)CC4)cc3c2=O)cn1 [Example 336, N-(1-Cyanocyclopropyl)-3-[(1-methylpyrazol-4-yl)methyl]-2,4-dioxo-1H-quinazoline-6-sulfonamide] |  |  |  | IC50 [1, 3]: 401 nM; IC50 [2, 7]: 17900 nM |
| Cn1cc(Cn2c(=O)c3cc(S(=O)(=O)NC4(C)CC4)ccc3n(CC3(C)CC3(F)F)c2=O)cn1 (stereo not shown) [Example 329] | 129 nM |  |  | IC50 [1, 3]: 114 nM |
| Cn1cc(Cn2c(=O)c3cc(S(=O)(=O)NC4(C)CC4)ccc3n(CCC(N)=O)c2=O)cn1 [Example 273] | 14500 nM |  |  | IC50 [1, 3]: 291 nM |
| Cn1cc(Cn2c(=O)c3cc(S(=O)(=O)NC4(C)CC4)ccc3n(CCC(C)(C)O)c2=O)cn1 [Example 368] |  |  |  | IC50 [1, 3]: 108 nM; IC50 [2, 7]: 217 nM |
| Cc1cc(Cn2c(=O)c3cc(S(=O)(=O)NC4(C)CC4)ccc3n(CC3CCCCN3C)c2=O)on1 (stereo not shown) [Example 275] | 304 nM |  |  | IC50 [1, 3]: 333 nM |
| Cn1c(=O)c2cc(S(=O)(=O)NC3(C)CC3)ccc2n(CC2CC2(F)F)c1=O (stereo not shown) [Example 36] | 591 nM |  |  |  |
| 1-[(2,5-Dimethylpyrazol-3-yl)methyl]-3-[(1-methylpyrazol-4-yl)methyl]-2,4-dioxo-N-[1-(trideuteriomethyl)cyclopropyl]quinazoline-6-sulfonamide [Example 490] |  |  |  | IC50 [2, 6]: 70 nM |
| Cn1c(=O)c2cc(S(=O)(=O)NC3(C)CC3)ccc2n(CC2CC2)c1=O [Example 23] | 519 nM |  |  |  |
| Cn1cc(Cn2c(=O)c3cc(S(=O)(=O)NC4(C)CC4)ccc3n(CC3CC3)c2=O)cn1 [Example 174] | 56 nM |  |  |  |
| CCC#CCn1c(=O)n(C)c(=O)c2cc(S(=O)(=O)NC3(C)CC3)ccc21 [Example 137] | 608 nM |  |  |  |
| Cc1cc(Cn2c(=O)c3cc(S(=O)(=O)NC4(C)CC4)ccc3n(CC3CC(C)(C)O3)c2=O)on1 (stereo not shown) [Example 352] | 608 nM |  |  |  |
| Cn1cc(Cn2c(=O)c3cc(S(=O)(=O)NC4(C)CC4)ccc3n(CC3CN(C(=O)OC(C)(C)C)C3)c2=O)cn1 [Example 365] | 218 nM |  |  |  |

Now from value to molecule, other results behind:

| IC50 [2, 4] | IC50 ([1]; read-out: PARG Biochem IC50) | IC50 [2, 5] | Molecule | further results |
| --- | --- | --- | --- | --- |
|  | 54 nM | 92 nM | Cc1cc(Cn2c(=O)c3cc(S(=O)(=O)NC4(CF)CC4)ccc3n(Cc3cc(C)no3)c2=O)on1 [Example 521, N-[1-(Fluoromethyl)cyclopropyl]-1,3-bis[(3-methylisoxazol-5-yl)methyl]-2,4-dioxo-quinazoline-6-sulfonamide] |  |
|  | 10200 nM | 3650 nM | Cn1cc(Cn2c(=O)[nH]c3ccc(S(=O)(=O)NC4(C=O)CC4)cc3c2=O)cn1 [Example 479, N-(1-Formylcyclopropyl)-3-[(1-methylpyrazol-4-yl)methyl]-2,4-dioxo-1H-quinazoline-6-sulfonamide] |  |
|  | 6120 nM | 1170 nM | Cn1c(=O)n(CC(=O)N2CCCC2)c(=O)c2cc(S(=O)(=O)NC3(C)CC3)ccc21 [Example 475, 1-Methyl-N-(1-methylcyclopropyl)-2,4-dioxo-3-(2-oxo-2-pyrrolidin-1-yl-ethyl)quinazoline-6-sulfonamide] |  |
|  | 42 nM | 2160 nM | CCn1cncc1Cn1c(=O)n(Cc2cnn(C)c2)c(=O)c2cc(S(=O)(=O)NC3(CF)CC3)ccc21 [Example 576, 1-[(3-Ethylimidazol-4-yl)methyl]-N-[1-(fluoromethyl)cyclopropyl]-3-[(1-methylpyrazol-4-yl)methyl]-2,4-dioxo-quinazoline-6-sulfonamide] |  |
|  | 162 nM |  | CCn1c(=O)n(Cc2cc(C)no2)c(=O)c2cc(S(=O)(=O)NC3(CF)CC3)ccc21 [Example 520, 1-Ethyl-N-[1-(fluoromethyl)cyclopropyl]-3-[(3-methylisoxazol-5-yl)methyl]-2,4-dioxo-quinazoline-6-sulfonamide] | IC50 [2, 6]: 92 nM |
|  | 130 nM | 128 nM | Cc1cnc(Cn2c(=O)n(Cc3cnn(C)c3)c(=O)c3cc(S(=O)(=O)NC4(CF)CC4)ccc32)cn1 [Example 569, N-[1-(Fluoromethyl)cyclopropyl]-1-[(5-methylpyrazin-2-yl)methyl]-3-[(1-methylpyrazol-4-yl)methyl]-2,4-dioxo-quinazoline-6-sulfonamide] |  |
|  | 49 nM | 86 nM | Cc1cc(Cn2c(=O)c3cc(S(=O)(=O)NC4(CF)CC4)ccc3n(Cc3cnn(C)c3)c2=O)on1 [Example 555, N-[1-(Fluoromethyl)cyclopropyl]-3-[(3-methylisoxazol-5-yl)methyl]-1-[(1-methylpyrazol-4-yl)methyl]-2,4-dioxo-quinazoline-6-sulfonamide] |  |
|  | 361 nM | 214 nM | Cc1cc(Cn2c(=O)c3cc(S(=O)(=O)NC4(C)CC4)ccc3n(CC3(C)CCC3)c2=O)on1 [Example 467, 1-[(1-Methylcyclobutyl)methyl]-N-(1-methylcyclopropyl)-3-[(3-methylisoxazol-5-yl)methyl]-2,4-dioxo-quinazoline-6-sulfonamide] |  |
|  | 579 nM | 698 nM | Cc1nnc(Cn2c(=O)c3cc(S(=O)(=O)NC4(CF)CC4)ccc3n(C)c2=O)s1 [Example 515, N-[1-(Fluoromethyl)cyclopropyl]-1-methyl-3-[(5-methyl-1,3,4-thiadiazol-2-yl)methyl]-2,4-dioxo-quinazoline-6-sulfonamide] |  |
|  | 2690 nM | 736 nM | CCc1nnc(Cn2c(=O)c3cc(S(=O)(=O)NC4(CF)CC4)ccc3n(C)c2=O)s1 [Example 628, 3-[(5-Ethyl-1,3,4-thiadiazol-2-yl)methyl]-N-[1-(fluoromethyl)cyclopropyl]-1-methyl-2,4-dioxo-quinazoline-6-sulfonamide] |  |
|  | 283 nM | 188 nM | Cc1cc(Cn2c(=O)c3cc(S(=O)(=O)NC4(C)CC4)ccc3n(CC(C)(C)C)c2=O)on1 [Example 465, 1-(2,2-Dimethylpropyl)-N-(1-methylcyclopropyl)-3-[(3-methylisoxazol-5-yl)methyl]-2,4-dioxo-quinazoline-6-sulfonamide] |  |
|  | 2670 nM | 10000 nM | Cn1cc(Cn2c(=O)c3cc(S(=O)(=O)NC4(CF)CC4)ccc3n(CC(F)(F)F)c2=O)cn1 [Example 623, N-[1-(Fluoromethyl)cyclopropyl]-3-[(1-methylpyrazol-4-yl)methyl]-2,4-dioxo-1-(2,2,2-trifluoroethyl)quinazoline-6-sulfonamide] |  |
|  | 3980 nM | 1120 nM | CCOC(=O)Cn1c(=O)c2cc(S(=O)(=O)NC3(C)CC3)ccc2n(C)c1=O [Example 468, Ethyl 2-[1-methyl-6-[(1-methylcyclopropyl)sulfamoyl]-2,4-dioxo-quinazolin-3-yl]acetate] |  |
|  | 19 nM | 1500 nM | Cn1cc(Cn2c(=O)c3cc(S(=O)(=O)NC4(CF)CC4)ccc3n(Cc3cncn3C)c2=O)cn1 [Example 588, N-[1-(Fluoromethyl)cyclopropyl]-1-[(3-methylimidazol-4-yl)methyl]-3-[(1-methylpyrazol-4-yl)methyl]-2,4-dioxo-quinazoline-6-sulfonamide] |  |
|  | 34 nM | 63 nM | Cc1ncc(Cn2c(=O)n(Cc3cnn(C)c3)c(=O)c3cc(S(=O)(=O)NC4(CF)CC4)ccc32)o1 [Example 548, N-[1-(Fluoromethyl)cyclopropyl]-1-[(2-methyloxazol-5-yl)methyl]-3-[(1-methylpyrazol-4-yl)methyl]-2,4-dioxo-quinazoline-6-sulfonamide] |  |
|  |  | 1080 nM | Cn1cc(Cn2c(=O)[nH]c3ccc(S(=O)(=O)NC4(C)CC4)cc3c2=O)cn1 [Example 430, N-(1-Methylcyclopropyl)-3-[(1-methylpyrazol-4-yl)methyl]-2,4-dioxo-1H-quinazoline-6-sulfonamide] |  |
|  |  | 133 nM | Cc1cc(Cn2c(=O)c3cc(S(=O)(=O)NC4(CF)CC4)ccc3n(CCF)c2=O)on1 [Example 526, 1-(2-Fluoroethyl)-N-[1-(fluoromethyl)cyclopropyl]-3-[(3-methylisoxazol-5-yl)methyl]-2,4-dioxo-quinazoline-6-sulfonamide] |  |
|  |  | 1400 nM | Cc1cc2cc(S(=O)(=O)NC3(C)CC3)ccc2n(CC2CC2)c1=O [Example 426, 1-(Cyclopropylmethyl)-3-methyl-N-(1-methylcyclopropyl)-2-oxo-quinoline-6-sulfonamide] |  |
|  |  | 534 nM | Cn1c(=O)n(Cc2ccno2)c(=O)c2cc(S(=O)(=O)NC3(CF)CC3)ccc21 [Example 513, N-[1-(Fluoromethyl)cyclopropyl]-3-(isoxazol-5-ylmethyl)-1-methyl-2,4-dioxo-quinazoline-6-sulfonamide] |  |
|  |  | 496 nM | Cc1cc(Cn2c(=O)n(Cc3nnc(C)s3)c(=O)c3cc(S(=O)(=O)NC4(CF)CC4)ccc32)n(C)n1 [Example 603, 1-[(2,5-Dimethylpyrazol-3-yl)methyl]-N-[1-(fluoromethyl)cyclopropyl]-3-[(5-methyl-1,3,4-thiadiazol-2-yl)methyl]-2,4-dioxo-quinazoline-6-sulfonamide] |  |
